Laboratory results reported in PubChem BioAssay AID1963441 (Molecular Pharmacology Branch, DTP, NCI, 2024).

System: NCI-H1876 complex spheroid growth, % test/control
Assay: Anticancer human tumor NCI-H1876 cell line growth inhibition [Asc];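 note: compound exposure lasted 7 days starting three days after seeding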;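 for viability, T/C: 100% = DMSO vehicle control wells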
Conditions: for IC50: curve of first compound; for viability, T/C: stronger effect = lower value
Procedure, shortened: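 Spheroid model: tumor line + HUVEC + hMSC. Single agents and combinations; top conc. at/near clinical Cmax (10 microM if undetermined), half-log dilutions. DMSO stocks at 800-fold test concentration.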

- IC50 (second compound 0.00949 µM): > 3 µM
- IC50 (second compound 0.03 µM): > 3 µM
- IC50 (second compound 0.0949 µM): > 3 µM
- IC50 (second compound 0.3 µM): > 3 µM
- IC50 (second compound 0.949 µM): > 3 µM
- IC50 (second compound 3 µM): > 3 µM
SMILES: Cc1nc(N2CCC3(CC2)COC(C)C3N)c(CO)nc1Sc1ccnc(N)c1Cl (configuration not stated) + CCN1C(C(=O)NC23CCC(C(=O)O)(CC2)CC3)C(c2cccc(Cl)c2F)C2(C(=O)Nc3cc(Cl)ccc32)C12CCCCC2
- viability, T/C (second compound 0.00949 µM, first compound 0.00949 µM): 89.1%
- viability, T/C (second compound 0.00949 µM, first compound 0.03 µM): 90%
- viability, T/C (second compound 0.00949 µM, first compound 0.0949 µM): 92.1%
- viability, T/C (second compound 0.00949 µM, first compound 0.3 µM): 102%
- viability, T/C (second compound 0.00949 µM, first compound 0.949 µM): 91.6%
- viability, T/C (second compound 0.00949 µM, first compound 3 µM): 77.5%
- viability, T/C (second compound 0.03 µM, first compound 0.00949 µM): 99.6%
- viability, T/C (second compound 0.03 µM, first compound 0.03 µM): 104%
- viability, T/C (second compound 0.03 µM, first compound 0.0949 µM): 118%
- viability, T/C (second compound 0.03 µM, first compound 0.3 µM): 93.5%
- viability, T/C (second compound 0.03 µM, first compound 0.949 µM): 92.4%
- viability, T/C (second compound 0.03 µM, first compound 3 µM): 80.2%
- viability, T/C (second compound 0.0949 µM, first compound 0.00949 µM): 103%
- viability, T/C (second compound 0.0949 µM, first compound 0.03 µM): 113%
- viability, T/C (second compound 0.0949 µM, first compound 0.0949 µM): 94.3%
- viability, T/C (second compound 0.0949 µM, first compound 0.3 µM): 92.4%
- viability, T/C (second compound 0.0949 µM, first compound 0.949 µM): 93.9%
- viability, T/C (second compound 0.0949 µM, first compound 3 µM): 87.3%
- viability, T/C (second compound 0.3 µM, first compound 0.00949 µM): 109%
- viability, T/C (second compound 0.3 µM, first compound 0.03 µM): 104%
- viability, T/C (second compound 0.3 µM, first compound 0.0949 µM): 93.4%
- viability, T/C (second compound 0.3 µM, first compound 0.3 µM): 99.5%
- viability, T/C (second compound 0.3 µM, first compound 0.949 µM): 88.7%
- viability, T/C (second compound 0.3 µM, first compound 3 µM): 88.7%
- viability, T/C (second compound 0.949 µM, first compound 0.00949 µM): 108%
- viability, T/C (second compound 0.949 µM, first compound 0.03 µM): 106%
- viability, T/C (second compound 0.949 µM, first compound 0.0949 µM): 103%
- viability, T/C (second compound 0.949 µM, first compound 0.3 µM): 109%
- viability, T/C (second compound 0.949 µM, first compound 0.949 µM): 105%
- viability, T/C (second compound 0.949 µM, first compound 3 µM): 87%
- viability, T/C (second compound 3 µM, first compound 0.00949 µM): 108%
- viability, T/C (second compound 3 µM, first compound 0.03 µM): 97.9%
- viability, T/C (second compound 3 µM, first compound 0.0949 µM): 74%
- viability, T/C (second compound 3 µM, first compound 0.3 µM): 90.3%
- viability, T/C (second compound 3 µM, first compound 0.949 µM): 90.1%
- viability, T/C (second compound 3 µM, first compound 3 µM): 67%
